Experimental data taken from patent US20040248765A1, “Tumour targeting prodrugs activated by metallo matrixproteinases” (priority 2001, published 2004).
Structures can show the parent of a compound that is named as a salt. Where two headings read alike, the source gives them in different places. Where a SMILES comes first, the peptide text is derived from it. [ ]: non-standard residue; d: D form. The star is where a group is joined. NH(CH2)3NH(1-anthraquinonyl) = O=C1c2ccccc2C(=O)c2c(NCCCN*)cccc21; Nle = CCCC[C@H](N)C(=O)O; Nva = CCC[C@H](N)C(=O)O

Key:
[1] = tested on: MAC15A adenocarcinoma of the colon; assay: In vitro cytotoxicity against MAC15A adenocarcinoma of the colon, 96 hours exposure; assay type: cell-based
[2] = Mus musculus, exposure time 96 hours, read-out: IC50
[3] = exposure time 96 hours, read-out: IC50

SMILES	melting point [°C]	IC50 ([1]; Mus musculus, 96 h) [µM]	IC50 [1, 2] [µM]	IC50 [1, 3] [µM]
CC(C)C[C@H](NC(=O)[C@H](C)NC(=O)[C@@H](N)CC(C)C)C(=O)N1CCC[C@H]1C(=O)NCCCNc1cccc2c1C(=O)c1ccccc1C2=O.O=C(O)C(F)(F)F (H-LALP-{NH(CH2)3NH(1-anthraquinonyl)})	178 to 180			
CC(C)C[C@H](NC(=O)[C@H](Cc1ccccc1)NC(=O)[C@@H](N)CC(C)C)C(=O)N1CCC[C@H]1C(=O)NCCCNc1cccc2c1C(=O)c1ccccc1C2=O.O=C(O)C(F)(F)F (H-LFLP-{NH(CH2)3NH(1-anthraquinonyl)})	184 to 186			
CCC[C@H](NC(=O)CNC(=O)[C@@H](N)CC(C)C)C(=O)N1CCC[C@H]1C(=O)NCCCNc1cccc2c1C(=O)c1ccccc1C2=O.O=C(O)C(F)(F)F (H-LG[Nva]P-{NH(CH2)3NH(1-anthraquinonyl)})	172 to 176			
CC(C)C[C@H](NC(=O)[C@@H](N)Cc1ccc(O)cc1)C(=O)NCC(=O)N[C@@H](CC(C)C)C(=O)N1CCC[C@H]1C(=O)NCCCNc1cccc2c1C(=O)c1ccccc1C2=O.O=C(O)C(F)(F)F (H-YLGLP-{NH(CH2)3NH(1-anthraquinonyl)})	184 to 188			
CCC[C@H](NC(=O)[C@@H](N)Cc1ccc(O)cc1)C(=O)NCC(=O)N[C@@H](CC(C)C)C(=O)N1CCC[C@H]1C(=O)NCCCNc1cccc2c1C(=O)c1ccccc1C2=O.O=C(O)C(F)(F)F (H-Y[Nva]GLP-{NH(CH2)3NH(1-anthraquinonyl)})	174			
CCCC[C@H](N)C(=O)NCC(=O)N[C@@H](CC(C)C)C(=O)N1CCC[C@H]1C(=O)NCCCNc1cccc2c1C(=O)c1ccccc1C2=O.O=C(O)C(F)(F)F (H-[Nle]GLP-{NH(CH2)3NH(1-anthraquinonyl)})	169			
CCC[C@H](N)C(=O)NCC(=O)N[C@@H](CC(C)C)C(=O)N1CCC[C@H]1C(=O)NCCCNc1cccc2c1C(=O)c1ccccc1C2=O.O=C(O)C(F)(F)F (H-[Nva]GLP-{NH(CH2)3NH(1-anthraquinonyl)})	210			
CCC[C@H](N)C(=O)N[C@@H](CC(C)C)C(=O)NCC(=O)N[C@@H](CC(C)C)C(=O)N1CCC[C@H]1C(=O)NCCCNc1cccc2c1C(=O)c1ccccc1C2=O.O=C(O)C(F)(F)F (H-[Nva]LGLP-{NH(CH2)3NH(1-anthraquinonyl)})	189			
O=C(O)C(F)(F)F.O=C1c2ccccc2C(=O)c2c(NCCCNC(=O)[C@H]3CCCN3)cccc21 [Example 9, 1-[3-(D-Prolylamino)propylamino]anthraquinone trifluoroacetate]	177	3.5		
CC(C)C[C@H](N)C(=O)N1CCC[C@@H]1C(=O)NCCCNc1cccc2c1C(=O)c1ccccc1C2=O [Example 10, 1-[3-(L-Leucyl-D-prolylamino)propylamino]anthraquinone trifluoroacetate]		7		
CC(C)C[C@H](NC(=O)CN)C(=O)N1CCC[C@@H]1C(=O)NCCCNc1cccc2c1C(=O)c1ccccc1C2=O [Example 11, 1-[3-(Glycyl-L-leucyl-D-prolylamino)propylamino]anthraquinone trifluoroacetate]		22		
CC(C)C[C@H](NC(=O)CNC(=O)[C@@H](N)CC(C)C)C(=O)N1CCC[C@@H]1C(=O)NCCCNc1cccc2c1C(=O)c1ccccc1C2=O [Example 12, 1-[3-(L-Leucyl-glycyl-L-leucyl-D-prolylamino)propylamino]-anthraquinone trifluoroacetate] (H-LGL[dP]-{NH(CH2)3NH(1-anthraquinonyl)})		30		
CC(C)C[C@H](NC(=O)[C@H](C)NC(=O)[C@H](C)N)C(=O)NCC(=O)N[C@@H](CC(C)C)C(=O)N1CCC[C@@H]1C(=O)NCCCNc1cccc2c1C(=O)c1ccccc1C2=O.O=C(O)C(F)(F)F [Example 14, 1-[3-(L-Alanyl-L-alanyl-L-leucyl-glycyl-L-leucyl-D-prolylamino)-propylamino]anthraquinone trifluoroacetate]	132		38	
CC(C)C[C@H](NC(=O)[C@H](C)NC(=O)[C@H](C)NC(=O)[C@@H](C)N)C(=O)NCC(=O)N[C@@H](CC(C)C)C(=O)N1CCC[C@@H]1C(=O)NCCCNc1cccc2c1C(=O)c1ccccc1C2=O.O=C(O)C(F)(F)F [Example 15, 1-[3-(D-Alanyl-L-alanyl-L-alanyl-L-leucyl-glycyl-L-leucyl-D-prolylamino)propylamino]anthraquinone trifluoroacetate] (H-[dA]AALGL[dP]-{NH(CH2)3NH(1-anthraquinonyl)})	166	40		
CCC[C@H](NC(=O)[C@@H](N)CCC)C(=O)NCC(=O)N[C@@H](CC(C)C)C(=O)N1CCC[C@H]1C(=O)NCCCNc1cccc2c1C(=O)c1ccccc1C2=O.O=C(O)C(F)(F)F [Example 45, 1-[3-(L-Norvalyl-L-norvalyl-glycyl-L-leucyl-L-prolylamino)propyl-amino]anthraquinone trifluoroacetate] (H-[Nva][Nva]GLP-{NH(CH2)3NH(1-anthraquinonyl)})	174 to 176		4	
CCC[C@H](NC(=O)[C@H](C)N)C(=O)N[C@@H](CCC)C(=O)NCC(=O)N[C@@H](CC(C)C)C(=O)N1CCC[C@H]1C(=O)NCCCNc1cccc2c1C(=O)c1ccccc1C2=O [Example 46, 1-3-(L-Alanyl-L-norvalyl-L-norvalyl-glycyl-L-leucyl-L-prolylamino)-propylamino]anthraquinone trifluoroacetate] (H-A[Nva][Nva]GLP-{NH(CH2)3NH(1-anthraquinonyl)})				8
CCC[C@H](NC(=O)[C@H](C)NC(=O)[C@@H](C)N)C(=O)N[C@@H](CCC)C(=O)NCC(=O)N[C@@H](CC(C)C)C(=O)N1CCC[C@H]1C(=O)NCCCNc1cccc2c1C(=O)c1ccccc1C2=O [Example 47, 1-[3-(D-AlanyI-L-alanyl-L-norvalyl-L-norvalyl-glycyl-L-leucyl-L-prolylamino)propylamino]anthraquinone trifluoroacetate] (H-[dA]A[Nva][Nva]GLP-{NH(CH2)3NH(1-anthraquinonyl)})				22
N[C@@H](Cc1ccccc1)C(=O)N1CCC[C@H]1C(=O)NCCCNc1cccc2c1C(=O)c1ccccc1C2=O.O=C(O)C(F)(F)F [Example 72, 1-[3-(L-Phenylalanyl-L-prolylamino)propylamino]anthraquinone trifluoroacetate]	118 to 120	3		
NCC(=O)N[C@@H](Cc1ccccc1)C(=O)N1CCC[C@H]1C(=O)NCCCNc1cccc2c1C(=O)c1ccccc1C2=O.O=C(O)C(F)(F)F [Example 73, 1-[3-(Glycyl-L-phenylalanyl-L-prolylamino)propylamino]anthraquinone trifluoroacetate]	129	2.5		
CC[C@H](C)[C@H](N)C(=O)NCC(=O)N[C@@H](Cc1ccccc1)C(=O)N1CCC[C@H]1C(=O)NCCCNc1cccc2c1C(=O)c1ccccc1C2=O.O=C(O)C(F)(F)F [Example 74, 1-[3-(L-Isoleucyl-glycyl-L-phenylalanyl-L-prolylamino)propylamino]-anthraquinone trifluoroacetate]	122 to 124		2.5	
CC[C@H](C)[C@H](NC(=O)[C@@H](N)Cc1ccccc1)C(=O)NCC(=O)N[C@@H](Cc1ccccc1)C(=O)N1CCC[C@H]1C(=O)NCCCNc1cccc2c1C(=O)c1ccccc1C2=O.O=C(O)C(F)(F)F [Example 75, 1-[3-(L-Phenylalanyl-L-isoleucyl-glycyl-L-phenylalanyl-L-prolylamino)-propylamino]anthraquinone trifluoroacetate]	132 to 136		20	
CC[C@H](C)[C@H](NC(=O)[C@H](Cc1ccccc1)NC(=O)[C@@H](N)CC(C)C)C(=O)NCC(=O)N[C@@H](Cc1ccccc1)C(=O)N1CCC[C@H]1C(=O)NCCCNc1cccc2c1C(=O)c1ccccc1C2=O.O=C(O)C(F)(F)F [Example 76, 1-[3-(L-Leucyl-L-phenylalanyl-L-isoleucyl-glycyl-L-phenylalanyl-L-prolylamino)propylamino]anthraquinone trifluoroacetate]	166 to 178		21	
CC[C@H](C)[C@H](NC(=O)[C@H](Cc1ccccc1)NC(=O)[C@H](CC(C)C)NC(=O)[C@@H](C)N)C(=O)NCC(=O)N[C@@H](Cc1ccccc1)C(=O)N1CCC[C@H]1C(=O)NCCCNc1cccc2c1C(=O)c1ccccc1C2=O.O=C(O)C(F)(F)F [Example 77, 1-[3-(D-Alanyl-L-Leucyl-L-Phenylalanyl-L-isoleucyl-glycyl-L-phenylalanyl-L-prolylamino)propylamino]anthraquinone trifluoroacetate]	142 to 148		24	
